Experiments:
C57 mice = assay: Reversal of THC-induced hypolocomotion in mice; format: in vivo; settings: 30 min pre-test
Description: Reversal of THC-induced hypolocomotion in mice: Six C57 mice (Charles River, Wilmington, MA) were administered […] (THC) 3 mg/kg ip, 10 min pre-test. […] In this apparatus, four qualitatively different measures of locomotor activity are automatically scored. […] The magnitude of the effect is similar to that elicited by rimonabant given at 3 mg/kg po, and given 30 min pre-test.

rat = assay: Repeated dose (28 day) toxicity study in rat; format: in vivo; settings: repeated dose 28 day
Description: Repeated dose (28 day) toxicity studies were conducted using ANEB-001 in two species, rat and primate, selected on the basis of acceptable bioavailability and comparison of metabolite profiles with those in human liver microsomes.

SMILES	action of THC on the total active time parameter of locomotor measures (C57 mice; 30 mg/kg orally, THC 3 mg/kg ip 10 min pre-test, 15 min in locomotor activity cages)	findings at dose levels of 75 mg/kg/day (rat; 75 mg/kg/day)	no observed adverse effect level (rat; highest dose tested) [mg/kg/day]	magnitude of the effect on THC-induced hypolocomotion (compared with ANEB-001) (C57 mice; 3 mg/kg po)
CC(C)(C)NC(=O)N1CC(O[C@H](c2ccc(Cl)cc2)c2ccccc2C(F)(F)F)C1 [ANEB-001, 3-[(R)-2-(trifluoromethyl)-4′-chlorobenzhydryloxy]-N-(tert-butyl)azetidine-1-carboxamide]	significantly reversed	hepatic changes consistent with an adaptive response	75	–
Cc1c(C(=O)NN2CCCCC2)nn(-c2ccc(Cl)cc2Cl)c1-c1ccc(Cl)cc1 [rimonabant, reference compound]	–	–	–	similar

From patent US20240000748A1, “FORMULATIONS AND METHODS FOR TREATING ACUTE CANNABINOID OVERDOSE” (Anebulo Pharmaceuticals, Inc., priority 2020, published 2024)
